From the OligoGym collection come the findings set out here.

Bases are written 5' to 3'; sugars and linkages follow in the same order, as letters with counts (s phosphorothioate, o phosphodiester; PS: all linkages phosphorothioate). The collection does not say whether C is 5-methylated. l = locked nucleic acid (LNA); d = 2'-deoxy (DNA)

This series has as its target Tau. Kind of series: rat primary cortical neurons, FLIPR, 25 uM ASO.
Take CGAGTCTACCATGTCG (sugars l3 d10 l3, PS): the calcium oscillation score is 103 % of control.

For the sequence CAGATTTAATTCTCACT (sugars l4 d9 l4, PS), the calcium oscillation score was 77.7 % of control.

For the sequence “CCACTACAAGCTCCACAT (sugars l2 d14 l2, PS)”, the calcium oscillation score was 50 % of control.

As for CAGAATATTACACCAT (sugars l4 d8 l4, PS), the calcium oscillation score was 102 % of control.

Turning to “CCAGGGAGGCAGACACCTCG (sugars l3 d14 l3, PS)”, the calcium oscillation score was 10.2 % of control.

Consider CCTTACCACTTTCAGG (sugars l3 d10 l3, PS), for which the calcium oscillation score was 111 % of control.

For the sequence “TCTCTCTTAACTTTATTTTA (sugars l3 d13 l4, PS)”, the calcium oscillation score was 80.8 % of control.

As for GATACATGCGTCCTTT (sugars l3 d10 l3, PS), the calcium oscillation score was 110 % of control.

TGATGCAGGAGTTGTA (sugars l3 d10 l3, PS): the calcium oscillation score is 7.62 % of control.

In the case of “TATTAATTCATAAATGACTA (sugars l3 d14 l3, PS)”, the calcium oscillation score is 40.3 % of control.

Turning to TGCAAACACTCCCTCT (sugars l2 d10 l4, PS), the calcium oscillation score is 35.4 % of control.

With CTTCCAAGACTTCTCC (sugars l4 d10 l2, PS), the calcium oscillation score is 77.2 % of control.

Consider CCCTGAAACCATTAAC (sugars l3 d9 l4, PS), for which the calcium oscillation score was 70.2 % of control.

Regarding AAGATACATGCGTCCT (sugars l3 d10 l3, PS), the calcium oscillation score was 112 % of control.

Take AACTGGTTTGTAGACT (sugars l3 d10 l3, PS): the calcium oscillation score is 0 % of control.

As to TGGATATAGTTAAGGC (sugars l3 d10 l3, PS), the calcium oscillation score was 90.5 % of control.

As to “CTAATGAGCCACACTTGGAG (sugars l3 d14 l3, PS)”, the calcium oscillation score was 46.5 % of control.

For “GGGACCCAATCTTCGACTGG (sugars l3 d14 l3, PS)”, the calcium oscillation score is 0 % of control.

Regarding ATGTCGATGCTGCCGG (sugars l3 d10 l3, PS), the calcium oscillation score was 0 % of control.

In the case of “GTTTATGATGGATGTTGCCT (sugars l3 d14 l3, PS)”, the calcium oscillation score is 3.32 % of control.

As for “TGCTCTTAGCATCAGAGGTT (sugars l3 d14 l3, PS)”, the calcium oscillation score is 25.9 % of control.

For CTTTTCTTAAAGTTCAC (sugars l4 d9 l4, PS), the calcium oscillation score was 82.2 % of control.

For the sequence “TGCTTTTCCCAATTATT (sugars l3 d11 l3, PS)”, the calcium oscillation score was 69.5 % of control.

With “TTAACCAATTAACCGAACTG (sugars l3 d14 l3, PS)”, the calcium oscillation score was 122 % of control.

As for “TATTTCCAAATTCACTTTTA (sugars llldldddddddddllddll, PS)”, the calcium oscillation score is 135 % of control.

Take CCTAATCCTGTGCT (sugars l3 d8 l3, PS): the calcium oscillation score was 62.6 % of control.

“CCCGCCTTTAGTGATTACAG (sugars l3 d14 l3, PS)”: the calcium oscillation score was 2.38 % of control.

With “TTCATGTTAAATCCCTC (sugars l4 d10 l3, PS)”, the calcium oscillation score is 103 % of control.

Take “ACTTTATTTCCAAATTCACT (sugars l5 d10 l5, PS)”: the calcium oscillation score was 98 % of control.

For “CCTTTTCTACTCTACTC (sugars l3 d12 l2, PS)”, the calcium oscillation score is 70.9 % of control.

Turning to TAGTCACTCTGGTGA (sugars l3 d9 l3, PS), the calcium oscillation score is 78.1 % of control.

Consider “TTCCTGCAAATTCTCAA (sugars l4 d10 l3, PS)”, for which the calcium oscillation score was 61.7 % of control.

With TTACAAGCATTTCAAG (sugars l3 d10 l3, PS), the calcium oscillation score is 36.8 % of control.

As for “CCTACTTTATTCCCTTAA (sugars l2 d12 l4, PS)”, the calcium oscillation score is 86.8 % of control.

On to “ATTAACATATTTTTACCTA (sugars l4 d11 l4, PS)”, for which the calcium oscillation score is 65.3 % of control.

As for “GAGAGACCACATTATCATCC (sugars l3 d14 l3, PS)”, the calcium oscillation score was 96.7 % of control.

For the sequence “CCTGAAACACCTTTTTCC (sugars l2 d14 l2, PS)”, the calcium oscillation score is 71.1 % of control.

Turning to “CTAAGCACTTTACCCATC (sugars l3 d13 l2, PS)”, the calcium oscillation score was 97.6 % of control.

On to “CCACCCATCAATTTGGAAAG (sugars l3 d14 l3, PS)”, for which the calcium oscillation score is 58.1 % of control.

Regarding TCCTAATCCTGTGC (sugars l3 d8 l3, PS), the calcium oscillation score is 65 % of control.

With “ACCTCCTAGAACACAAC (sugars l4 d10 l3, PS)”, the calcium oscillation score is 53.9 % of control.

CAGGAGTTGTAAGC (sugars l3 d8 l3, PS): the calcium oscillation score was 77.5 % of control.

Regarding AATAGCAAACAGGATA (sugars l3 d10 l3, PS), the calcium oscillation score is 82.4 % of control.

Consider “GTTTTCAAACACACCTT (sugars l3 d10 l4, PS)”, for which the calcium oscillation score is 104 % of control.

Turning to “CCCCATTTTTGACATAT (sugars l2 d12 l3, PS)”, the calcium oscillation score is 73.1 % of control.

In the case of ATGATTGTGGGCTTAG (sugars l3 d10 l3, PS), the calcium oscillation score is 24.4 % of control.

“AGAGAGACCACATTATCATC (sugars l3 d14 l3, PS)”: the calcium oscillation score was 68.5 % of control.

In the case of “TCTCAGCTCTTCCATAAGCA (sugars l3 d14 l3, PS)”, the calcium oscillation score was 82.6 % of control.

For the sequence “AACACCTTTTAATTCATT (sugars l4 d10 l4, PS)”, the calcium oscillation score was 74.8 % of control.

Turning to “TAATAGATCTTTCCCCT (sugars l2 d12 l3, PS)”, the calcium oscillation score was 103 % of control.

As to “TACAGTTGGCCCTACCATAT (sugars l3 d14 l3, PS)”, the calcium oscillation score is 52.4 % of control.

In the case of ACCCATTATCTGCTCC (sugars l3 d11 l2, PS), the calcium oscillation score was 50.9 % of control.

On to ACGTTGCTAAGATCCA (sugars l3 d10 l3, PS), for which the calcium oscillation score is 18.1 % of control.

In the case of GCTAAGGCAAGGCCTA (sugars l3 d10 l3, PS), the calcium oscillation score is 129 % of control.

Regarding CCCAAGAGGCACAAGT (sugars l3 d10 l3, PS), the calcium oscillation score was 89.5 % of control.

“CCCCATTCAGATCTATC (sugars l2 d13 l2, PS)”: the calcium oscillation score is 98.8 % of control.

Take “CACATTTGCAAACCACA (sugars l3 d10 l4, PS)”: the calcium oscillation score was 67.4 % of control.

In the case of “TTATTCTTTTTTTTTCCACA (sugars l2 d14 l4, PS)”, the calcium oscillation score is 30.3 % of control.

On to GCGACTTGTACACGAT (sugars l3 d10 l3, PS), for which the calcium oscillation score was 32.2 % of control.

In the case of “CATTATCATCCATTCTG (sugars l3 d10 l4, PS)”, the calcium oscillation score was 47.3 % of control.

With “AAAATCCTTAATTTAACCAC (sugars l4 d12 l4, PS)”, the calcium oscillation score is 64 % of control.

Take CCCTGAAAGAGGGCAG (sugars l3 d10 l3, PS): the calcium oscillation score is 18.4 % of control.

For “CAGCATTTCCATTTCATC (sugars l2 d13 l3, PS)”, the calcium oscillation score was 52.7 % of control.

“CCCTTCAACATCAGCCA (sugars l2 d13 l2, PS)”: the calcium oscillation score was 47.6 % of control.

Consider “CAGGGACGTGGGTGATATTG (sugars l3 d14 l3, PS)”, for which the calcium oscillation score was 0 % of control.

With “CATCTTAATTCATTTAATTC (sugars l4 d12 l4, PS)”, the calcium oscillation score was 84.1 % of control.

For TGATCTTAGGCTGGC (sugars l3 d9 l3, PS), the calcium oscillation score is 44.1 % of control.

As to TCCTTCTTCATTCTTG (sugars l3 d10 l3, PS), the calcium oscillation score was 23.8 % of control.

As for TAGCCCTAAAGTCC (sugars l3 d8 l3, PS), the calcium oscillation score is 87.6 % of control.

“TAACCAACTTTCATCTACTT (sugars l3 d14 l3, PS)”: the calcium oscillation score was 47.2 % of control.

Take CCTCGTCAGCTAGCGT (sugars l3 d10 l3, PS): the calcium oscillation score was 76 % of control.

Consider “AACAGGAGAGCCATTTCCCA (sugars l3 d14 l3, PS)”, for which the calcium oscillation score is 57.1 % of control.

As to CGGCGCAGGCGCGAGC (sugars l3 d10 l3, PS), the calcium oscillation score was 2.71 % of control.

For the sequence “CTACTTTATTCCCTTAACAA (sugars l2 d15 l3, PS)”, the calcium oscillation score is 86.8 % of control.

Regarding “AAAATACTCCTCCCTTA (sugars l3 d10 l4, PS)”, the calcium oscillation score was 67.1 % of control.

Take “CTTTTCTACTCTACTCTCAA (sugars l4 d14 l2, PS)”: the calcium oscillation score is 67.6 % of control.

For TGTGATGCAGGAGTTG (sugars l3 d10 l3, PS), the calcium oscillation score was 28.7 % of control.

Consider “ATATTGTCCAGGGACCCAAT (sugars l3 d14 l3, PS)”, for which the calcium oscillation score is 19.9 % of control.

Consider “TTACCATCCTATCTTCT (sugars l2 d11 l4, PS)”, for which the calcium oscillation score was 72.7 % of control.

Regarding “ACACTGTCCTTTAAACA (sugars l4 d10 l3, PS)”, the calcium oscillation score is 68.1 % of control.

Regarding CCCACCAAAGACTTCA (sugars l2 d11 l3, PS), the calcium oscillation score is 58.3 % of control.

Regarding CGTTTTCTTACCACCC (sugars l2 d12 l2, PS), the calcium oscillation score was 46.2 % of control.

In the case of CGTCAGCTAGCGTGGC (sugars l3 d10 l3, PS), the calcium oscillation score is 117 % of control.

On to “ATTTCCAAATTCACTTTTAC (sugars llldldddddddddllddll, PS)”, for which the calcium oscillation score was 131 % of control.

As to GCAAACAGGATACAGT (sugars l3 d10 l3, PS), the calcium oscillation score was 0 % of control.

Consider “TTCGAAACCAAGGTCCCACC (sugars l3 d14 l3, PS)”, for which the calcium oscillation score is 27.5 % of control.

For the sequence TTCTTCATTCTTGCCC (sugars l2 d12 l2, PS), the calcium oscillation score is 15.5 % of control.

With “ACTTTATTTCCAAATTCACTTTTAC (sugars llldddddddddddddddddldldl, PS)”, the calcium oscillation score was 17.7 % of control.

For “TTTTTTATTCATAACTTTTC (sugars l4 d12 l4, PS)”, the calcium oscillation score was 63.8 % of control.

In the case of “TCCTAAGTCAACCACACC (sugars l2 d14 l2, PS)”, the calcium oscillation score is 69 % of control.

Consider ATCAGAGGTTTCAGAG (sugars l3 d10 l3, PS), for which the calcium oscillation score is 0 % of control.

For the sequence “CAACAATCCAACCACTAA (sugars l4 d10 l4, PS)”, the calcium oscillation score was 74.1 % of control.

With CAGTCTTTATTAACAC (sugars l4 d8 l4, PS), the calcium oscillation score was 54 % of control.

Turning to “TTTCATCTACTTTTCAGC (sugars l4 d12 l2, PS)”, the calcium oscillation score was 39.4 % of control.

Regarding “CACCCACTTTCCTAATTCCC (sugars l1 d17 l2, PS)”, the calcium oscillation score was 55.1 % of control.
